Laboratory results reported in US20070027150A1 (priority 2005, published 2007).

Each compound was assayed against His-tagged N-terminal ATP binding domain (amino acid residues 9-236) of HSP90α (Homo sapiens, UniProt P07900) (assay: HSP90 inhibitor binding potency: TRF competition binding assay). Conditions: Table I; read-out: Hsp90 IC50 Range.
In short: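 Competition against biotinylated radicicol for binding to the His-tagged 9-236 ATP domain of HSP90α: 2 h, room temperature, HEPES/MgCl2/KCl/BSA buffer. Streptavidin capture, then europium-labeled anti-His antibody and enhancement solution; europium counts give IC50.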

Structure (SMILES)	IC50 [nM]
COc1ncccc1-c1cc(F)ccc1C1CC(=O)c2c(C)nc(N)nc2C1 (stereo not drawn) [Compound 99, 2-amino-7-[4-fluoro-2-(2-methoxy-pyridin-3-yl)-phenyl]-4-methyl-7,8-dihydro-6H-quinazolin-5-one]	< 1000
Cc1nc(N)nc2c1C(=O)CC(c1ccccc1-c1cncc3ccccc13)C2 (stereo not drawn) [Compound 100, 2-amino-7-(2-isoquinolin-4-ylphenyl)-4-methyl-7,8-dihydroquinazolin-5(6H)-one]	1000 to 10000
Cc1nc(N)nc2c1C(=O)CC(c1ccccc1-c1cc(F)cnc1Cl)C2 (stereo not drawn) [Compound 101, 2-amino-7-[2-(2-chloro-5-fluoropyridin-3-yl)phenyl]-4-methyl-7,8-dihydroquinazolin-5(6H)-one]	< 1000
CC(=O)Nc1cccc(-c2ccccc2C2CC(=O)c3c(C)nc(N)nc3C2)c1 (stereo not drawn) [Compound 102, N-[2′-(2-amino-4-methyl-5-oxo-5,6,7,8-tetrahydroquinazolin-7-yl)-1,1′-biphenyl-3-yl]acetamide]	1000 to 10000
CC(=O)Nc1ccccc1-c1ccccc1C1CC(=O)c2c(C)nc(N)nc2C1 (stereo not drawn) [Compound 103, N-[2′-(2-amino-4-methyl-5-oxo-5,6,7,8-tetrahydroquinazolin-7-yl)-1,1′-biphenyl-2-yl]acetamide]	1000 to 10000
COC(=O)c1cccc(-c2ccccc2C2CC(=O)c3c(C)nc(N)nc3C2)c1 (stereo not drawn) [Compound 104, methyl 2′-(2-amino-4-methyl-5-oxo-5,6,7,8-tetrahydroquinazolin-7-yl)-1,1′-biphenyl-3-carboxylate]	> 10000
COc1cccc(-c2ccccc2CO)c1C1CC(=O)c2c(C)nc(N)nc2C1 (stereo not drawn) [Compound 105, 2-amino-7-[2′-(hydroxymethyl)-3-methoxy-1,1′-biphenyl-2-yl]-4-methyl-7,8-dihydroquinazolin-5(6H)-one]	< 1000
COc1cccc(-c2ccccc2CO)c1C1CC(=O)c2c(C)nc(N)nc2C1 (stereo not drawn) [Compound 106, 2-amino-7-[2′-(hydroxymethyl)-3-methoxy-1,1′-biphenyl-2-yl]-4-methyl-7,8-dihydroquinazolin-5(6H)-one]	< 1000
COc1ccc(-c2ccccc2C2CC(=O)c3c(C)nc(N)nc3C2)c(OC)c1 (stereo not drawn) [Compound 107, 2-amino-7-(2′,4′-dimethoxy-1,1′-biphenyl-2-yl)-4-methyl-7,8-dihydroquinazolin-5(6H)-one]	1000 to 10000
COc1ccc(-c2cccnc2Cl)c(C2CC(=O)c3c(C)nc(N)nc3C2)c1 (stereo not drawn) [Compound 108, 2-amino-7-[2-(2-chloropyridin-3-yl)-5-methoxyphenyl]-4-methyl-7,8-dihydroquinazolin-5(6H)-one]	< 1000
Cc1nc(N)nc2c1C(=O)CC(c1ccccc1-c1ccccc1C(F)(F)F)C2 (stereo not drawn) [Compound 109, 2-amino-4-methyl-7-[2′-(trifluoromethyl)-1,1′-biphenyl-2-yl]-7,8-dihydroquinazolin-5(6H)-one]	< 1000
Cc1nc(N)nc2c1C(=O)CC(c1ccccc1-c1cccc(C(F)(F)F)c1)C2 (stereo not drawn) [Compound 110, 2-amino-4-methyl-7-[3′-(trifluoromethyl)-1,1′-biphenyl-2-yl]-7,8-dihydroquinazolin-5(6H)-one]	1000 to 10000
Cc1nc(N)nc2c1C(=O)CC(c1ccccc1-c1ccccc1OC(F)(F)F)C2 (stereo not drawn) [Compound 111, 2-amino-4-methyl-7-[2′-(trifluoromethoxy)-1,1′-biphenyl-2-yl]-7,8-dihydroquinazolin-5(6H)-one]	< 1000
Cc1nc(N)nc2c1C(=O)CC(c1ccccc1-c1cccc(OC(F)(F)F)c1)C2 (stereo not drawn) [Compound 112, 2-amino-4-methyl-7-[3′-(trifluoromethoxy)-1,1′-biphenyl-2-yl]-7,8-dihydroquinazolin-5(6H)-one]	> 10000
Cc1nc(N)nc2c1C(=O)CC(c1ccccc1-c1ccccc1Oc1ccccc1)C2 (stereo not drawn) [Compound 113, 2-amino-4-methyl-7-(2′-phenoxy-1,1′-biphenyl-2-yl)-7,8-dihydroquinazolin-5(6H)-one]	< 1000
Cc1nc(N)nc2c1C(=O)CC(c1ccccc1-c1cccc(NS(C)(=O)=O)c1)C2 (stereo not drawn) [Compound 114, N-[2′-(2-amino-4-methyl-5-oxo-5,6,7,8-tetrahydroquinazolin-7-yl)-1,1′-biphenyl-3-yl]methanesulfonamide]	1000 to 10000
Cc1nc(N)nc2c1C(=O)CC(c1ccccc1-c1cccnn1)C2 (stereo not drawn) [Compound 115, 2-amino-4-methyl-7-(2-pyridazin-3-ylphenyl)-7,8-dihydroquinazolin-5(6H)-one]	1000 to 10000
Cc1ncccc1-c1ccccc1C1CC(=O)c2c(C)nc(N)nc2C1 (stereo not drawn) [Compound 116, 2-amino-4-methyl-7-[2-(2-methylpyridin-3-yl)phenyl]-7,8-dihydroquinazolin-5(6H)-one]	< 1000
Cc1ccc(-c2ccccc2C2CC(=O)c3c(C)nc(N)nc3C2)nc1 (stereo not drawn) [Compound 117, 2-amino-4-methyl-7-[2-(5-methylpyridin-2-yl)phenyl]-7,8-dihydroquinazolin-5(6H)-one]	< 1000
Cc1ccnc(-c2ccccc2C2CC(=O)c3c(C)nc(N)nc3C2)c1 (stereo not drawn) [Compound 118, 2-amino-4-methyl-7-[2-(4-methylpyridin-2-yl)phenyl]-7,8-dihydroquinazolin-5(6H)-one]	< 1000

Structure (SMILES)	IC50 [nM]
Cc1cccc(-c2ccccc2C2CC(=O)c3c(C)nc(N)nc3C2)n1 (stereo not drawn) [Compound 119, 2-amino-4-methyl-7-[2-(6-methylpyridin-2-yl)phenyl]-7,8-dihydroquinazolin-5(6H)-one]	> 10000
Cc1cccnc1-c1ccccc1C1CC(=O)c2c(C)nc(N)nc2C1 (stereo not drawn) [Compound 120, 2-amino-4-methyl-7-[2-(3-methylpyridin-2-yl)phenyl]-7,8-dihydroquinazolin-5(6H)-one]	1000 to 10000
Cc1ccncc1-c1ccccc1C1CC(=O)c2c(C)nc(N)nc2C1 (stereo not drawn) [Compound 121, 2-amino-4-methyl-7-[2-(4-methylpyridin-3-yl)phenyl]-7,8-dihydroquinazolin-5(6H)-one]	> 10000
Cc1nc(N)nc2c1C(=O)CC(c1ccccc1-c1cccc(F)n1)C2 (stereo not drawn) [Compound 122, 2-amino-7-[2-(6-fluoropyridin-2-yl)phenyl]-4-methyl-7,8-dihydroquinazolin-5(6H)-one]	< 1000
Cc1nc(N)nc2c1C(=O)CC(c1ccccc1-c1ccc(F)cn1)C2 (stereo not drawn) [Compound 123, 2-amino-7-[2-(5-fluoropyridin-2-yl)phenyl]-4-methyl-7,8-dihydroquinazolin-5(6H)-one]	< 1000
COc1cccc(-c2ccccc2C2CC(=O)c3c(C)nc(N)nc3C2)n1 (stereo not drawn) [Compound 124, 2-amino-7-[2-(6-methoxypyridin-2-yl)phenyl]-4-methyl-7,8-dihydroquinazolin-5(6H)-one]	< 1000
COc1ccnc(-c2ccccc2C2CC(=O)c3c(C)nc(N)nc3C2)c1 (stereo not drawn) [Compound 125, 2-amino-7-[2-(4-methoxy-pyridin-2-yl)-phenyl]-4-methyl-7,8-dihydro-6H-quinazolin-5-one]	< 1000
Cc1cccc(-c2ccccc2C2CC(=O)c3c(C)nc(N)nc3C2)c1F (stereo not drawn) [Compound 126, 2-amino-7-(2′-fluoro-3′-methyl-1,1′-biphenyl-2-yl)-4-methyl-7,8-dihydroquinazolin-5(6H)-one]	< 1000
COc1cccc(-c2cn(C)nc2C2CC(=O)c3c(C)nc(N)nc3C2)n1 (stereo not drawn) [Compound 127, 2-amino-7-[4-(6-methoxy-pyridin-2-yl)-1-methyl-1H-pyrazol-3-yl]-4-methyl-7,8-dihydro-6H-quinazolin-5-one]	< 1000
Cc1nc(N)nc2c1C(=O)CC(c1ccccc1-c1cccc3[nH]ccc13)C2 (stereo not drawn) [Compound 128, 2-amino-7-[2-(1H-indol-4-yl)phenyl]-4-methyl-7,8-dihydroquinazolin-5(6H)-one]	< 1000
Cc1nc(N)nc2c1C(=O)CC(c1ccccc1-c1cccc3cc[nH]c13)C2 (stereo not drawn) [Compound 129, 2-amino-7-[2-(1H-indol-7-yl)phenyl]-4-methyl-7,8-dihydroquinazolin-5(6H)-one]	< 1000
COc1cccc(-c2cc(F)ccc2C2CC(=O)c3c(C)nc(N)nc3C2)n1 (stereo not drawn) [Compound 130, 2-amino-7-[4-fluoro-2-(6-methoxy-pyridin-2-yl)-phenyl]-4-methyl-7,8-dihydro-6H-quinazolin-5-one]	< 1000
Cc1nc(N)nc2c1C(=O)CC(c1ccccc1-c1cccc3c1NC(=O)C3)C2 (stereo not drawn) [Compound 131, 2-amino-4-methyl-7-[2-(2-oxo-2,3-dihydro-1H-indol-7-yl)phenyl]-7,8-dihydroquinazolin-5(6H)-one]	1000 to 10000
COc1cccc(-c2cccc(OC)c2C2CC(=O)c3c(C)nc(N)nc3C2)n1 (stereo not drawn) [Compound 132, 2-amino-7-[2-methoxy-6-(6-methoxy-pyridin-2-yl)-phenyl]-4-methyl-7,8-dihydro-6H-quinazolin-5-one]	< 1000
Cc1nc(N)nc2c1C(=O)CC(c1ccccc1Oc1ccccc1)C2 (stereo not drawn) [Compound 133, 2-amino-4-methyl-7-(2-phenoxyphenyl)-7,8-dihydroquinazolin-5(6H)-one]	< 1000
Cc1ccccc1Oc1ccccc1C1CC(=O)c2c(C)nc(N)nc2C1 (stereo not drawn) [Compound 134, 2-amino-4-methyl-7-[2-(2-methylphenoxy)phenyl]-7,8-dihydroquinazolin-5(6H)-one]	< 1000
Cc1cccc(Oc2ccccc2C2CC(=O)c3c(C)nc(N)nc3C2)c1 (stereo not drawn) [Compound 135, 2-amino-4-methyl-7-[2-(3-methylphenoxy)phenyl]-7,8-dihydroquinazolin-5(6H)-one]	< 1000
Cc1ccc(Oc2ccccc2C2CC(=O)c3c(C)nc(N)nc3C2)cc1 (stereo not drawn) [Compound 136, 2-amino-4-methyl-7-[2-(4-methylphenoxy)phenyl]-7,8-dihydroquinazolin-5(6H)-one]	> 10000
Cc1nc(N)nc2c1C(=O)CC(c1ccccc1Oc1cccc(F)c1)C2 (stereo not drawn) [Compound 137, 2-amino-7-[2-(3-fluorophenoxy)phenyl]-4-methyl-7,8-dihydroquinazolin-5(6H)-one]	< 1000
